Measurements: patent KR20070023630A, “티로신 키나제 억제제로서의 퀴나졸린 유도체” (아스트라제네카 아베, priority 2003, dated 2005)

Test system: erbB2 phosphorylation in MCF7-derived cell line (MCF7 유래의 세포주에서 erbB2의 인산화)
Test: Test (c): clone 24 phospho-erbB2 cell assay
Assay type: cell-based
Conditions: Homo sapiens, clone 24 cells (MCF7-derived, overexpressing full-length erbB2), read-out: IC50 test (c): inhibition of erbB2 tyrosine kinase protein phosphorylation

IC50 [nM] | SMILES
4 | CS(=O)(=O)N1CCC(COc2ccc3ncnc(Nc4ccc(OCc5ccccn5)c(Cl)c4)c3c2)C1 (stereo not drawn) [실시예 14, N-[3-클로로-4-(피리딘-2-일메톡시)페닐]-6-{[1-(메틸술포닐)피롤리딘-3-일]메톡시}퀴나졸린-4-아민]
210 | CN(C)CC(=O)N1CCC(Oc2ccc3ncnc(Nc4ccc(OCc5ccccn5)c(Cl)c4)c3c2)CC1 [실시예 8, N-[3-클로로-4-(피리딘-2-일메톡시)페닐]-6-({1-[(디메틸아미노)아세틸]피페리딘-4-일}옥시)퀴나졸린-4-아민]
150 | CN(C)CC(=O)N1CCC(Oc2ccc3ncnc(Nc4ccc(OCc5cnccn5)c(Cl)c4)c3c2)CC1 [실시예 9, N-[3-클로로-4-(피라진-2-일메톡시)페닐]-6-({1-[(디메틸아미노)아세틸]피페리딘-4-일}옥시)퀴나졸린-4-아민]
